Results published in US9808527B2, “Methods and compositions for treating HIV infections” (priority 2006, dated 2017).

Key:
[1] = tested on: HIV-1GRL98065r-40P; assay: microbe, parasite or virus in culture; assay type: cell-based; conditions: for IC50: Human immunodeficiency virus 1, MT4, read-out: IC50 against HIV-1GRL98065r-40P; for fold change of IC50, HIV-1GRL98065r-40P: compared to HIV-1NL4-3
Method: Drug susceptibility assay. The susceptibility of HIV-1LAI, HIV-2EHO, HIV-2ROD, to various drugs and the cytotoxicity of those drugs was determined by using the MTT assay. Briefly, MT-2 cells (2×10^4/mL) were exposed to 100 TCID50s (50% tissue culture infectious doses) of HIV-1LAI, HIV-2EHO, or HIV-2ROD in the presence or absence of various concentrations of drugs in 96-well microculture plates and were incubated at 37° C. for 7 days. After 100 μL of the medium was removed from each well, 3-(4,5-dimethylthiazol-2-yl)-2,5-diphenyltetrazolium bromide (MTT) solution (10 μL, 7.5 mg/mL in phosphate-buffered saline) was added to each well in the plate, followed by incubation at 37° C. for 4 hours. […] All assays were performed in duplicate or triplicate. To determine the sensitivity of HIV-1Ba-L, HIV-1ERS104 pre, and clinical multi-drug-resistant HIV-1 isolates and different subtypes of HIV-1 isolates to drugs, phytohemagglutinin-activated peripheral blood mononuclear cells (PHA-PBMs; 10^6/mL) were exposed to 50 TCID50 (50% tissue infectious dose) of each HIV-1 isolate and cultured in the presence or absence of various concentrations of drugs in 10-fold serial dilutions in 96-well microtiter culture plates. To determine the drug susceptibility of certain laboratory HIV-1 strains (HIV-1NL4-3), MT-4 cells were used as target cells. MT-4 cells (10^5/mL) were exposed to 100 TCID50 of wild type HIV-1NL4-3 and PI-resistant HIV-1NL4-3 in the presence or absence of various concentrations of drugs and were incubated at 37° C. On day 7 of culture, the supernatant was harvested and the amount of p24 Gag protein was determined by using a fully automated chemiluminescent enzyme immunoassay system (Lumipulse F; Fujirebio Inc., Tokyo, Japan) (22). […] All assays were performed in duplicate or triplicate. […]

[2] = molecular target: T1, HIV-1 protease (Human immunodeficiency virus type 1 group M subtype B, UniProt P04585, C555A/C583A/L521I/L551I/Q495K/V491I); assay: biochemical; assay type: biochemical
T1 construct: Wild-type PR at final concentrations of 160-190 nM were added
Text: Enzyme kinetics. The chromogenic substrate Lys-Ala-Arg-Val-Nle-p-nitroPhe-Glu-Ala-Nle-amide (Sigma, St. Louis, Mo.) was used to determine the kinetic parameters (Kovalevsky et al. J Mol Biol 363(1):161-173 (2006), Ghosh et al. J Med Chem 49(17):5252-5261 (2006)). […] The kcat and Km values were obtained employing standard data fitting techniques for a reaction obeying Michaelis-Menten kinetics. The data curves were fitted using SigmaPlot 8.0.2 (SPSS Inc., Chicago, Ill.). The active enzyme concentrations were calculated from the intercept of the linear fit to the IC50 versus [S] plots with the IC50 axis. The Ki values were obtained from the IC50 values estimated from an inhibitor dose-response curve with the spectroscopic assay using the equation Ki=(IC50-[E]/2)/(1+[S]/Km), where [E] and [S] are the PR and substrate concentrations, respectively (Maibaum & Rich J Med Chem 31(34):625-629 (1988)). The Ki values were measured at four to five substrate concentrations. The measurement was repeated at least three times to produce the average values.

[3] = tested on: HIV-1 isolates of all subtypes (subtypes A, B, C, and E); assay: p24 assay, PHA-PBMs, panel of HIV-1 isolates of subtypes A, B, C, and E; assay type: cell-based; conditions: Human immunodeficiency virus 1, read-out: IC50 against HIV-1 isolates of subtypes A, B, C, and E
Method: (§1) Drug susceptibility assay. The susceptibility of HIV-1LAI, HIV-2EHO, HIV-2ROD, to various drugs and the cytotoxicity of those drugs was determined by using the MTT assay. Briefly, MT-2 cells (2×10^4/mL) were exposed to 100 TCID50s (50% tissue culture infectious doses) of HIV-1LAI, HIV-2EHO, or HIV-2ROD in the presence or absence of various concentrations of drugs in 96-well microculture plates and were incubated at 37° C. for 7 days. After 100 μL of the medium was removed from each well, 3-(4,5-dimethylthiazol-2-yl)-2,5-diphenyltetrazolium bromide (MTT) solution (10 μL, 7.5 mg/mL in phosphate-buffered saline) was added to each well in the plate, followed by incubation at 37° C. for 4 hours. […] All assays were performed in duplicate or triplicate. […] On day 7 of culture, the supernatant was harvested and the amount of p24 Gag protein was determined by using a fully automated chemiluminescent enzyme immunoassay system (Lumipulse F; Fujirebio Inc., Tokyo, Japan) (22). […]
The IC50 values were determined by using PHA-PBMs as target cells and the inhibition of p24 Gag protein production by each drug was used as an endpoint. […]

[4] = Cytotoxicity by MTT assay; assay type: cell-based, Human; conditions: human
Method: (§2) Drug susceptibility assay. The susceptibility of HIV-1LAI, HIV-2EHO, HIV-2ROD, to various drugs and the cytotoxicity of those drugs was determined by using the MTT assay. Briefly, MT-2 cells (2×10^4/mL) were exposed to 100 TCID50s (50% tissue culture infectious doses) of HIV-1LAI, HIV-2EHO, or HIV-2ROD in the presence or absence of various concentrations of drugs in 96-well microculture plates and were incubated at 37° C. for 7 days. After 100 μL of the medium was removed from each well, 3-(4,5-dimethylthiazol-2-yl)-2,5-diphenyltetrazolium bromide (MTT) solution (10 μL, 7.5 mg/mL in phosphate-buffered saline) was added to each well in the plate, followed by incubation at 37° C. for 4 hours. […] All assays were performed in duplicate or triplicate. To determine the sensitivity of HIV-1Ba-L, HIV-1ERS104 pre, and clinical multi-drug-resistant HIV-1 isolates and different subtypes of HIV-1 isolates to drugs, phytohemagglutinin-activated peripheral blood mononuclear cells (PHA-PBMs; 10^6/mL) were exposed to 50 TCID50 (50% tissue infectious dose) of each HIV-1 isolate and cultured in the presence or absence of various concentrations of drugs in 10-fold serial dilutions in 96-well microtiter culture plates. To determine the drug susceptibility of certain laboratory HIV-1 strains (HIV-1NL4-3), MT-4 cells were used as target cells. MT-4 cells (10^5/mL) were exposed to 100 TCID50 of wild type HIV-1NL4-3 and PI-resistant HIV-1NL4-3 in the presence or absence of various concentrations of drugs and were incubated at 37° C. On day 7 of culture, the supernatant was harvested and the amount of p24 Gag protein was determined by using a fully automated chemiluminescent enzyme immunoassay system (Lumipulse F; Fujirebio Inc., Tokyo, Japan) (22). […] All assays were performed in duplicate or triplicate.

[5] = tested on: 92UG037 (A-R5); assay: p24 Gag production inhibition, PHA-PBMs, subtype A isolate 92UG037; assay type: cell-based, HIV-1; conditions: Human immunodeficiency virus 1, read-out: IC50 against 92UG037 (A-R5)
Method: as §2
The IC50 values were determined by using PHA-PBMs as target cells and the inhibition of p24 Gag protein production by each drug was used as an endpoint.

[6] = tested on: HIV-1, HIV-2, and primary HIV-1 strains of different subtypes; assay: Antiviral activity over Tables 1, 2 and 5 (summary); assay type: cell-based
Method: as §1

[7] = tested on: HIV-2 strains (HIV-2EHO and HIV-2ROD); assay: MTT assay, MT-2 cells, HIV-2 strains compared with HIV-1LAI; assay type: cell-based
Method: as §1

Compound	IC50 [1] [nM]	fold change of IC50, HIV-1GRL98065r-40P [1]	IC50 [5] [nM]	other results
CC(C)CN(CC(O)C(Cc1ccccc1)NC(=O)OC1COC2OCCC12)S(=O)(=O)c1ccc2c(c1)OCO2 (stereo not drawn) [GRL-98065]	180	600	0.4 ± 0.1	Ki [2]: 0.014 nM; IC50 [3]: 0.2 to 0.5 nM; CC50 at 7 days [4]: 35700 nM; IC50 [6]: 0.2 to 4.5 nM; factor by which potency against HIV-2 strains is less than against HIV-1LAI [7]: 6-9
CC(C)(C)NC(=O)[C@@H]1CN(Cc2cccnc2)CCN1C[C@@H](O)C[C@@H](Cc1ccccc1)C(=O)N[C@H]1c2ccccc2C[C@H]1O [IDV, indinavir]	280	–	–	–
CC(C)(C)NC(=O)[C@@H]1C[C@@H]2CCCC[C@@H]2CN1C[C@@H](O)[C@H](Cc1ccccc1)NC(=O)[C@H](CC(N)=O)NC(=O)c1ccc2ccccc2n1 [SQV, Saquinavir]	32	5	3.2 ± 0.3	–
COC(=O)N[C@H](C(=O)N[C@@H](Cc1ccccc1)[C@@H](O)CN(Cc1ccc(-c2ccccn2)cc1)NC(=O)[C@@H](NC(=O)OC)C(C)(C)C)C(C)(C)C [ATV, Atazanavir]	11	3	2.5 ± 0.2	–
CC(C)c1nc(CN(C)C(=O)N[C@H](C(=O)N[C@@H](Cc2ccccc2)C[C@H](O)[C@H](Cc2ccccc2)NC(=O)OCc2cncs2)C(C)C)cs1 [RTV, ritonavir]	–	–	41 ± 8	–
Cc1c(O)cccc1C(=O)N[C@@H](CSc1ccccc1)[C@H](O)CN1C[C@H]2CCCC[C@H]2C[C@H]1C(=O)NC(C)(C)C [NFV, Nelfinavir]	–	–	56 ± 14	–
CC(C)CN(C[C@@H](O)[C@H](Cc1ccccc1)NC(=O)O[C@H]1CCOC1)S(=O)(=O)c1ccc(N)cc1 [APV, Amprenavir]	> 1000	–	–	–
